Columns and labels:
HL60, U937 and Jurkat = test: MTT assay after 72 hours, sensitive cell lines; format: cell-based; conditions: Homo sapiens, 72 h exposure
Description: (§1) Protein was analyzed by Western blot and qRT-PCR was performed with Fast SYBR Green on a StepOnePlus Real-Time PCR System. […] Combination Index (CI) was determined using Chou & Talalay analysis; CI<1 reflects synergy, CI=1 additivity and CI>1 reflects antagonism.
(§2) Four established human cell lines derived from acute (HL60, U937) or chronic (K562) myeloid leukemia cells, and acute lymphoblastic leukemia cells (Jurkat) were treated with increasing doses of compound (1-1). MTT assays were performed after 72 hours exposure. GI50 and Emax values were calculated with the equation for sigmoidal dose response using Prism 5.00 and cell lines were classified as sensitive or resistant.
(§3) Five established human cell lines from acute and chronic acute myeloid leukemia (HL-60, U937, K562) and acute lymphoblastic leukemia (Jurkat, MOLT-3) were used. […] At each time point, compound 1-1 extracellular and intracellular concentrations were analyzed in cell supernatant and pellets respectively, using an Ultra Performance Liquid Chromatography with tandem Mass Spectrometry (concentration range 1-250 ng/mL). […] In addition, in cell pellets protein modulation was analyzed by Western blot using commercial antibodies and qRT-PCR was performed using Fast SYBR Green on a StepOnePlus RT-PCR System.

[1] = system: other cell lines (K-562, NALM-1, CCRF-CEM, MOLT-3/-4); test: MTT assay after 72 hours, other cell lines; format: cell-based; conditions: Homo sapiens, 72 h exposure
Description: as §1, §2, §3

[2] = system: HL-60, U937, K562, Jurkat, MOLT-3; test: cellular PK: extracellular and intracellular concentrations by UPLC-MS/MS; format: in vitro ADME, human; conditions: 500 nM
Description: (§4) Five established human cell lines from acute and chronic acute myeloid leukemia (HL-60, U937, K562) and acute lymphoblastic leukemia (Jurkat, MOLT-3) were used. […] For cellular PK studies, cells were seeded at 2·10^6 cells/ml and exposed to 500 nM compound 1-1 for 0, 5, 15, 30, 60, 120 and 360 minutes. At each time point, compound 1-1 extracellular and intracellular concentrations were analyzed in cell supernatant and pellets respectively, using an Ultra Performance Liquid Chromatography with tandem Mass Spectrometry (concentration range 1-250 ng/mL). Experiments were performed in quadruplicate. In addition, in cell pellets protein modulation was analyzed by Western blot using commercial antibodies and qRT-PCR was performed using Fast SYBR Green on a StepOnePlus RT-PCR System.

CMYC [3] = test: CMYC modulation (Western blot, qRT-PCR) in resistant cell line K562; format: cell-based, human; conditions: K562, 500 nM
Description: as §4

CMYC [4] = test: CMYC modulation (Western blot, qRT-PCR) in sensitive cell lines HL60 and Jurkat; format: cell-based, human; conditions: 500 nM
Description: as §4

[5] = phase Ib dose-finding study, population pharmacokinetics; format: in vivo, human
Description: An oncology phase Ib trial of compound (1-1) was conducted by the inventors with the primary objective of investigating escalation of the dose of compound (1-1) administered to patients with acute leukemia or other hematologic malignancies. The study enrolled patients with acute leukemia or other hematologic malignancies. The patients received several active dose levels of compound (1-1) ranging from 10 mg to 160 mg according to different dosing schedules. Blood samples from 7 time points were collected from each patient over 24 hours post-administration on Day 1 for leukemia patients (“complete PK”) and 4 blood samples were collected from each patient over 8 hours post-administration for patients with other hematologic malignancies (“limited PK”). compound (1-1) plasma concentrations were measured on the basis of the blood samples using validated ultra performance liquid chromatography with tandem mass spectrometry detection with a concentration range 1-250 ng/mL. Analyses and population pharmacokinetics (PPK) modeling were performed with the nonlinear mixed effect modeling software program Monolix version 4.3. Pharmacokinetic Parameters, including absorption constant (Ka); apparent distribution volume (V/F), apparent clearance (CL/F) and lean body mass (LBM; calculated calculated considering patient sex, weight and height) were calculated.
85 patients enrolled in the phase Ib trial of compound (1-1) and were treated from January 2013 to August 2014. The patients were randomized to […]: 10 mg, 20 mg, 40 mg, 80 mg, 120 mg and 160 mg once a day dosing (QD); and 40 mg twice a day dosing (BID). Among them, 81 patients with 630 plasma concentrations (607+23 BLQ) were evaluable for PK assessment. A 1-compartment open model adequately described the total compound (1-1) concentration-time curve. […] In the PPK study, the best simulation model was obtained when LBM was considered in the analysis. A correlation between CL/F and V/F was also observed for compound (1-1).

HDAC8 = biological target: T1, HDAC8 (Homo sapiens, UniProt Q9BY41); conditions: cited from earlier work
T1 sequence (Q9BY41 1-377): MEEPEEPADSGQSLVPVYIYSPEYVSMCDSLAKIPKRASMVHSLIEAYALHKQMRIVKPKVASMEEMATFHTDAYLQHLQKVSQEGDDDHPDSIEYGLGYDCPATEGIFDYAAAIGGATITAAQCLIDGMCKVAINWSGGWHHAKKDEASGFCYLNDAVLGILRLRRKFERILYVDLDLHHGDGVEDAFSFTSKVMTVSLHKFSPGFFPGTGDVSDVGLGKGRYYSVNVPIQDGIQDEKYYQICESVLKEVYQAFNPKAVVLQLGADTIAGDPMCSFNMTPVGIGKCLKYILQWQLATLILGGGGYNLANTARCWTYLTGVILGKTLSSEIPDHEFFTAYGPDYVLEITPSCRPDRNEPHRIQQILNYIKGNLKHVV

[6] = sensitive and resistant leukemic cell lines
[7] = patients, PPK 1-compartment model

Row | Structure (SMILES) | GI50 (HL60, U937 and Jurkat) | GI50 [1] | intracellular concentration, mean [2, 6] | intracellular concentration, range [2, 6] | time to cellular uptake [2, 6] | extracellular levels ([2]; stable up to 6 h of incubation) | exposure time after which CMYC mRNA levels downregulation was observed (CMYC [3]) | CMYC protein and mRNA levels (CMYC [4]) | half-life ([5]; human, plasma, oral, all patients, read-out: mean elimination half-life (converted)) | Tmax ([5]; human, plasma, oral, patients) | absorption constant Ka ([5]; patients, 10-160 mg oral, PPK 1-compartment model) | apparent clearance CL/F [5, 7] | apparent distribution volume V/F [5, 7] | IC50 (HDAC8)
1 | Cc1sc2c(c1C)C(c1ccc(Cl)cc1)=N[C@@H](CC(=O)Nc1ccc(O)cc1)c1nnc(C)n1-2 [Compound (1-1), 2-[(6S)-4-(4-chlorophenyl)-2,3,9-trimethyl-6H-thienol[3,2-f]-[1,2,4]triazolo[4,3-a][1,4]diazepin-6-yl]-N-(4-hydroxyphenyl)acetamide dihydrate] | 230 to 384 nM | ≥ 6000 nM | ~15 ng/106 cells | 3-23 ng·mL-1/106 cells | < 5 min | ~200 ng/mL | 2 h | rapid downregulation | 5.8 h | 1 to 4 h | 0.74 h⁻¹ | 8.45 L/h | 71.7 L | –
2 | Cc1cc(Cl)ccc1OCCCC(=O)NO [Droxinostat, 4-(4-Chloro-2-methylphenoxy)-N-hydroxybutanamide] | – | – | – | – | – | – | – | – | – | – | – | – | – | 1460 nM
